Results taken from US11344510B2, “Arylcyclohexylamine derivatives and their use in the treatment of psychiatric disorders” (Gilgamesh Pharmaceuticals, Inc., priority 2019, dated 2022).
“Also recorded” adds a separate entry of the source. Counter-ions that a name gives are not always drawn. Like-named read-outs stand apart in the source and are kept apart here.

Columns and labels:
[1] = HLM stability (Low Activity, Alternative Method); format: in vitro ADME; details: both sexes, human, liver microsomes, pH 7.4, Condition 1 column, values marked *: Low Activity, 0.50 mg protein/mL
In short: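 Pooled male and female human liver microsomes (0.50 mg/mL) in 100 mM PBS pH 7.4 with 1 mM MgCl2 and 1 mM NADPH, compound 1 μM (1.0% solvent), 37° C with shaking, six time points over 60 min. Parent remaining measured by LC-MS/MS; kel, t1/2 and Clint from linear regression of ln(AUC) versus time.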

[2] = HLM stability (Low Activity); format: in vitro ADME; details: both sexes, human, liver microsomes, pH 7.4, Condition 1 (Low Activity), 0.42 mg protein/mL
Procedure: For some of the compounds, stability was tested under two microsomal incubation conditions, one with normal enzymatic activity (low activity) and one with higher enzymatic loading, longer incubation time, and lower compound concentration (high activity) intended to increase metabolic lability.
HLM Stability (Low Activity). Pooled HLM from adult male and female donors (XenoTech H0630) were used. Microsomal incubations were carried out in 96-well plates in 5 aliquots of 40 μL, each (one for each time point). Liver microsomal incubation medium consisted of PBS (100 mM, pH 7.4), MgCl2 (3.3 mM), NADPH (3 mM), glucose-6-phosphate (5.3 mM), and glucose-6-phosphate dehydrogenase (0.67 units/mL), with 0.42 mg of liver microsomal protein per mL. Control incubations were performed by replacing the NADPH-cofactor system with PBS. Test compounds (2 μM, final solvent concentration 1.6%) were incubated with microsomes at 37° C., shaking at 100 rpm. Incubations were performed in duplicate. Five time points over 40 minutes were analyzed. The reactions were stopped by adding 12 volumes of 90% acetonitrile-water to incubation aliquots, followed by protein sedimentation by centrifugation at 5500 rpm for 3 minutes. Supernatants were analyzed for parent compound remaining using a fit-for-purpose liquid chromatography-tandem mass spectrometry (LC-MS/MS) method, with authentic samples of each analyte used for identity confirmation.
Data Analysis. The elimination constant (kel), half-life (t1/2) and intrinsic clearance (Clint) were determined in a plot of […] versus time, using linear regression analysis.

mice (forced swim test) = assay: Forced swim test in mice, 30-minute pre-treatment; format: in vivo, Swiss Webster mice; details: s.c., 30 minutes before test, relative to vehicle
Procedure: Animals. Male Swiss Webster mice, aged 4-5 weeks (body weight 25-30 g, Envigo) were used in the experiments Animals were housed in groups of 4-5 under controlled temperatures and 12-hour light/dark cycles, with ad libitum food (Teklad 7001 rodent diet) and water. These studies were carried out in strict accordance with the recommendations in the Guide for the Care and Use of Laboratory Animals of the National Institutes of Health. All efforts were made to minimize suffering.
Drugs and Drug Administration. Imipramine hydrochloride was administered intraperitoneally (i.p.) at a dose of 30 mg/kg. Other compounds were tested as the racemates (indicated by “rac” nomenclature) and were administered subcutaneously (s.c.) as the hydrochloride salts. Normal saline was used as the vehicle and all compounds were administered at a volume of 10 mL/kg, 30 minutes before behavioral testing.
Forced Swim Test (FST). Group size was n=10 per treatment Animals were acclimated to the testing room 30 minutes prior to behavioral testing. Mice were placed individually in a cylinder of water measuring 5 inches wide by 10 inches tall and maintained at 24-25° C. The activity of each mouse was recorded for 6 minutes using Noldus Ethovision tracking software, with periods of inactivity being automatically quantified.
Statistical Analysis. The data points shown are the mean±standard error of the mean (SEM). Analysis was performed using GraphPad Prism 6. Indicated statistical comparisons represent the results of unpaired, two-tailed t tests relative to vehicle (not corrected for multiple comparisons).

[3] = Oral bioavailability in rats, Method A; format: in vivo; details: plasma, Sprague Dawley rats
Procedure: Animals. Male Sprague Dawley rats were used in these studies Animals were randomly assigned to treatment groups and were fasted overnight before oral dosing.
Drugs. The test compound was dissolved in normal saline and administered intravenously (iv) or orally (po) at a dose of 10 mg/kg (calculated based on freebase) and at a volume of 5 mL/kg body weight. The compound was tested as the racemate (indicated by “rac” nomenclature).
Sample Collection and Bioanalysis. Blood samples were collected through external jugular vein (via cannulation) at 0.083, 0.25, 0.5, 1, 2, 4, 8 and 24 h post-dose (total 8 time points/rat, 4 rats per administration route). At each time point, ˜0.2 mL of blood was withdrawn and transferred into a pre-labeled 0.5 mL of micro centrifuge tube containing 4 μL of 200 mM K2EDTA solution as anticoagulant and mixed gently by inverting the tube to facilitate mixing of anticoagulant with the blood. Blood samples were kept on ice until centrifugation. The collected blood samples were centrifuged at 4000 rpm for 10 min at 4° C. Plasma samples were separated after centrifugation, transferred into pre-labeled tubes, and stored at −70° C. until bioanalysis. For bio analysis, 50 μL aliquots of plasma study samples or calibration standards were added to pre-labeled eppendorf tubes and 10 μL of an internal standard solution (diclofenac, 5 μg/mL in 50:50 v/v methanol:water) was added. Samples were quenched with 500 μL of precipitation solution (0.1% v/v formic acid in acetonitrile) and vortexed. All the samples were centrifuged at 14,000 rpm for 10 minutes at 4° C. Following centrifugation, 5 μL of each clear supernatant was analyzed with a fit-for-purpose LC-MS/MS method, with authentic samples of the analyte used for calibration and identification.
Data Analysis. Pharmacokinetic parameters were estimated using the non-compartmental analysis tool of Phoenix® WinNonlin software (Ver 8.1). The drug concentrations of samples below the lower limit of quantitation (LLOQ) were designated as zero.

Cc1ccccc1[C@@]1(N)CCCCC1=O [Compound 114S, (S)-2-amino-2-(o-tolyl)cyclohexan-1-one]
half-life at 1 μM [1]: > 2.42 h
microsomal CLint at 1 μM [1]: < 9.6 µL/min/mg

CNC1(c2ccccc2)CCCCC1=O (racemic) [Compound 14rac, 2-(methylamino)-2-phenylcyclohexan-1-one hydrochloride]
half-life at 2 μM [2]: 5.47 h
microsomal CLint at 2 μM [2]: 5 µL/min/mg
immobility time in FST (mice (forced swim test); hydrochloride): reduced time immobile; also recorded: induced antidepressant-like effects

CNC1(c2ccccc2Cl)CCCCC1=O (racemic) [rac-ketamine, racemic ketamine, reference compound]
half-life at 2 μM [2]: 1.31 h
microsomal CLint at 2 μM [2]: 21 µL/min/mg
AUC(0-t) ([3]; male, rat, 10 mg/kg iv, read-out: AUC0-last (iv) (converted)): 1340 ng·h/mL
half-life ([3]; male, rat, 10 mg/kg iv, read-out: t1/2 (iv)): 0.693 h
Cmax ([3]; male, rat, 10 mg/kg po): 190 ng/mL
AUC(0-t) ([3]; male, rat, 10 mg/kg po, read-out: AUC0-last (po) (converted)): 121 ng·h/mL
half-life ([3]; male, rat, 10 mg/kg po, read-out: t1/2 (po)): 0.562 h
F ([3]; 10 mg/kg): 9%
immobility time in FST (mice (forced swim test)): did not have effects

Cc1ccccc1[C@]1(N)CCCCC1=O [Compound 114R, (R)-2-amino-2-(o-tolyl)cyclohexan-1-one]
half-life at 1 μM [1]: > 2.42 h
microsomal CLint at 1 μM [1]: < 9.6 µL/min/mg
